Residual activity and inhibition data for two molecules are collected here from ChEMBL document CHEMBL4507263, “Data for DCP probe BAY-474” (2021).

In assay [1] the target is Tyrosine-protein kinase Blk (Homo sapiens) (UniProt P51451). As to conditions: Compound concentration 1000.0 nM.
The target of assay [2] is Calcium/calmodulin-dependent protein kinase type II subunit gamma (Homo sapiens) (UniProt Q13555). The conditions noted are these: Compound concentration 1000.0 nM.
Assay [3] concerns the target Peripheral plasma membrane protein CASK (Homo sapiens) (UniProt O14936). The conditions noted are these: Compound concentration 1000.0 nM.
In assay [4] the target is Cyclin-dependent kinase 11B (Homo sapiens) (UniProt P21127). The conditions noted are these: Compound concentration 1000.0 nM.
Assay [5] addresses Cyclin-dependent kinase 4 (Homo sapiens) (UniProt P11802). The conditions noted are these: Compound concentration 1000.0 nM.
Assay [6] has as its target Casein kinase I isoform alpha-like (Homo sapiens) (UniProt Q8N752). As to conditions: Compound concentration 1000.0 nM.
The target in assay [7] is Mitogen-activated protein kinase kinase kinase 12 (Homo sapiens) (UniProt Q12852). The conditions noted are these: Compound concentration 1000.0 nM.
The target of assay [8] is Dual specificity tyrosine-phosphorylation-regulated kinase 1B (Homo sapiens) (UniProt Q9Y463). As to conditions: Compound concentration 1000.0 nM.
Assay [9] has as its target Ephrin type-B receptor 1 (Homo sapiens) (UniProt P54762). The conditions noted are these: Compound concentration 1000.0 nM.
Assay [10] concerns the target Receptor tyrosine-protein kinase erbB-2 (Homo sapiens) (UniProt P04626). As to conditions: Compound concentration 1000.0 nM.
Assay [11] concerns the target Fibroblast growth factor receptor 2 (Homo sapiens) (UniProt P21802). As to conditions: Compound concentration 1000.0 nM.
In assay [12] the target is Fibroblast growth factor receptor 4 (Homo sapiens) (UniProt P22455). The conditions noted are these: Compound concentration 1000.0 nM.
Assay [13] has as its target Tyrosine-protein kinase Fgr (Homo sapiens) (UniProt P09769). As to conditions: Compound concentration 1000.0 nM.
Assay [14] has as its target Receptor-type tyrosine-protein kinase FLT3 (Homo sapiens) (UniProt P36888). The conditions noted are these: Compound concentration 1000.0 nM.
Assay [15] has as its target Interleukin-1 receptor-associated kinase 3 (Homo sapiens) (UniProt Q9Y616). The conditions noted are these: Compound concentration 1000.0 nM.
Assay [16] concerns the target Tyrosine-protein kinase JAK1 (Homo sapiens) (UniProt P23458). The conditions noted are these: Compound concentration 1000.0 nM.
Assay [17] concerns the target Mitogen-activated protein kinase kinase kinase kinase 5 (Homo sapiens) (UniProt Q9Y4K4). The conditions noted are these: Compound concentration 1000.0 nM.
Assay [18] addresses Dual specificity mitogen-activated protein kinase kinase 2 (Homo sapiens) (UniProt P36507). The conditions noted are these: Compound concentration 1000.0 nM.
The target in assay [19] is Dual specificity mitogen-activated protein kinase kinase 4 (Homo sapiens) (UniProt P45985). The conditions noted are these: Compound concentration 1000.0 nM.
Sequence of Dual specificity mitogen-activated protein kinase kinase 4 (Homo sapiens) (P45985 whole entry): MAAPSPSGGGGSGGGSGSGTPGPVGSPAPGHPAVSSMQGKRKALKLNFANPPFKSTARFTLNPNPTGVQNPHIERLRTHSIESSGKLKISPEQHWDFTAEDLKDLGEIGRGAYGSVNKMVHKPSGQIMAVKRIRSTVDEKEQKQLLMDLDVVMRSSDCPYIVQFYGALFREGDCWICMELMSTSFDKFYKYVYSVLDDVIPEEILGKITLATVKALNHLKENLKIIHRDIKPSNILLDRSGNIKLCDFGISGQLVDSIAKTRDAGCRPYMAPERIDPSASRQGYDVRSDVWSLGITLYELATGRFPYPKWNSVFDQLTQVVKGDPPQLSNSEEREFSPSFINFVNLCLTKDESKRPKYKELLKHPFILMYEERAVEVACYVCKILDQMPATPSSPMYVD
For assay [20], the target named is Serine/threonine-protein kinase 3 (Homo sapiens) (UniProt Q13188). The conditions noted are these: Compound concentration 1000.0 nM.
Sequence of Serine/threonine-protein kinase 3 (Homo sapiens) (Q13188 whole entry): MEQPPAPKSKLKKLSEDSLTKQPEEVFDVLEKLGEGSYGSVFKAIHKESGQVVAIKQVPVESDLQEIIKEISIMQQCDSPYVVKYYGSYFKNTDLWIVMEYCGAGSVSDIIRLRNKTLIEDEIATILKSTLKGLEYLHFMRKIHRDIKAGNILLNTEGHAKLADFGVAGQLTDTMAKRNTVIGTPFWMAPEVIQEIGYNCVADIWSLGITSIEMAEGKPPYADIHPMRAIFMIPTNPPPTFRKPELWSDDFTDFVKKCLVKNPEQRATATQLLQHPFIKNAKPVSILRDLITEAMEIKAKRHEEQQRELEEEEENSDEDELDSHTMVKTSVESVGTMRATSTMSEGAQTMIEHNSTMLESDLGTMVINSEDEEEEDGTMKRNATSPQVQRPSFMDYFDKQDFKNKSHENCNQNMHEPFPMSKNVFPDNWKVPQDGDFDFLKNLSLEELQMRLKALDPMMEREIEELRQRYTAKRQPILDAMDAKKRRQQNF
In assay [21] the target is Serine/threonine-protein kinase PAK 1 (Homo sapiens) (UniProt Q13153). As to conditions: Compound concentration 1000.0 nM.
The target in assay [22] is Serine/threonine-protein kinase RIO2 (Homo sapiens) (UniProt Q9BVS4). The conditions noted are these: Compound concentration 1000.0 nM.
The target of assay [23] is Ribosomal protein S6 kinase alpha-5 (Homo sapiens) (UniProt O75582). The conditions noted are these: Compound concentration 1000.0 nM.
The target of assay [24] is Serine/threonine-protein kinase Sgk1 (Homo sapiens) (UniProt O00141). As to conditions: Compound concentration 1000.0 nM.
Sequence of Serine/threonine-protein kinase Sgk1 (Homo sapiens) (O00141 whole entry): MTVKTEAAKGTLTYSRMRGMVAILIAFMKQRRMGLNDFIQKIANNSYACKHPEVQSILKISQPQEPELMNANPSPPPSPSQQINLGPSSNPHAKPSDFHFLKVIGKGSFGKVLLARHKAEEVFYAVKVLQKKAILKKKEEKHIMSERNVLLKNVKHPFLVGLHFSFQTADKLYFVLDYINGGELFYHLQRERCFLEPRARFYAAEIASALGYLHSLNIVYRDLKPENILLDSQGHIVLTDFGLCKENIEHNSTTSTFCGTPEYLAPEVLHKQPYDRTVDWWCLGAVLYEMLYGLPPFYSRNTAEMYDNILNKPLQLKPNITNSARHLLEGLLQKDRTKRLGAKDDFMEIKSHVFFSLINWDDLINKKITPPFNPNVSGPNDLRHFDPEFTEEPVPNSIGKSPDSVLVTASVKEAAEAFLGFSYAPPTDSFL
The target in assay [25] is NUAK family SNF1-like kinase 2 (Homo sapiens) (UniProt Q9H093). As to conditions: Compound concentration 1000.0 nM.
Assay [26] has as its target SRSF protein kinase 1 (Homo sapiens) (UniProt Q96SB4). As to conditions: Compound concentration 1000.0 nM.
Assay [27] addresses Tyrosine-protein kinase SYK (Homo sapiens) (UniProt P43405). The conditions noted are these: Compound concentration 1000.0 nM.
In assay [28] the target is Angiopoietin-1 receptor (Homo sapiens) (UniProt Q02763). The conditions noted are these: Compound concentration 1000.0 nM.
The target of assay [29] is Testis-specific serine/threonine-protein kinase 1 (Homo sapiens) (UniProt Q9BXA7). The conditions noted are these: Compound concentration 1000.0 nM.
In assay [30] the target is Vascular endothelial growth factor receptor 2 (Homo sapiens) (UniProt P35968). The conditions noted are these: Compound concentration 1000.0 nM.
Assay [31] concerns the target Serine/threonine-protein kinase 32B (Homo sapiens) (UniProt Q9NY57). As to conditions: Compound concentration 1000.0 nM.
Assay [32] has as its target 5-hydroxytryptamine receptor 2B (Homo sapiens) (UniProt P41595). As to conditions: Compound concentration 10.0 uM.
Assay [33] addresses Tyrosine-protein kinase BTK (Homo sapiens) (UniProt Q06187). Nature of the assay: BTK (h) Millipore kinase activity assay. As to conditions: Compound concentration 1.0 uM.
The target of assay [34] is Calcium/calmodulin-dependent protein kinase type II subunit beta (Homo sapiens) (UniProt Q13554). Nature of the assay: CaMKIIbeta (h) Millipore kinase activity assay. As to conditions: Compound concentration 1.0 uM.
Sequence of Calcium/calmodulin-dependent protein kinase type II subunit beta (Homo sapiens) (Q13554 whole entry): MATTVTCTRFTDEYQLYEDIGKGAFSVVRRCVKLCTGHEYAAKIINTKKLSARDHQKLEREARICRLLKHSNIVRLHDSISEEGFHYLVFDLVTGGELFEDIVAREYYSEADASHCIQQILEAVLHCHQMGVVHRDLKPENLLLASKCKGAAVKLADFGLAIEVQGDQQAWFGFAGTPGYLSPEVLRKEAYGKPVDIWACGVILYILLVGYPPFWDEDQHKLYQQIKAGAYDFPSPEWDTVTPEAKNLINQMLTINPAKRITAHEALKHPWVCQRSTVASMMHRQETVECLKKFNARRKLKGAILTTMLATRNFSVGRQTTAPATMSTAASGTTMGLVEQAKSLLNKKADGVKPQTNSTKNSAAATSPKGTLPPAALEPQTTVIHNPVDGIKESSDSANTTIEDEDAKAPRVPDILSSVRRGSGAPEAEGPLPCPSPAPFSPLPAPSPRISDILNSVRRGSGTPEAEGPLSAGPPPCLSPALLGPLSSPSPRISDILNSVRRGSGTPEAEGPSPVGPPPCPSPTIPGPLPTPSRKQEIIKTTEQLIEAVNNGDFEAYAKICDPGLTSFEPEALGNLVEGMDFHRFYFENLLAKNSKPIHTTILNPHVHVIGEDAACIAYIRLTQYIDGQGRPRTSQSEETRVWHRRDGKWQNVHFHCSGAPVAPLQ
In assay [35] the target is Cyclin-dependent kinase 2/cyclin E (Homo sapiens) (UniProt P24864+P24941+O96020). Nature of the assay: CDK2/cyclinE (h) Millipore kinase activity assay. It counts as protein-complex assay. The conditions noted are these: Compound concentration 1.0 uM.
Assay [36] concerns the target Serine/threonine-protein kinase Chk2 (Homo sapiens) (UniProt O96017). Nature of the assay: CHK2 (h) Millipore kinase activity assay. As to conditions: Compound concentration 1.0 uM.
In assay [37] the target is Insulin receptor-related protein (Homo sapiens) (UniProt P14616). Nature of the assay: IRR (h) Millipore kinase activity assay. The conditions noted are these: Compound concentration 1.0 uM.
The target in assay [38] is Serine/threonine-protein kinase NLK (Homo sapiens) (UniProt Q9UBE8). Nature of the assay: NLK (h) Millipore kinase activity assay. The conditions noted are these: Compound concentration 1.0 uM.
Sequence of Serine/threonine-protein kinase NLK (Homo sapiens) (Q9UBE8 whole entry): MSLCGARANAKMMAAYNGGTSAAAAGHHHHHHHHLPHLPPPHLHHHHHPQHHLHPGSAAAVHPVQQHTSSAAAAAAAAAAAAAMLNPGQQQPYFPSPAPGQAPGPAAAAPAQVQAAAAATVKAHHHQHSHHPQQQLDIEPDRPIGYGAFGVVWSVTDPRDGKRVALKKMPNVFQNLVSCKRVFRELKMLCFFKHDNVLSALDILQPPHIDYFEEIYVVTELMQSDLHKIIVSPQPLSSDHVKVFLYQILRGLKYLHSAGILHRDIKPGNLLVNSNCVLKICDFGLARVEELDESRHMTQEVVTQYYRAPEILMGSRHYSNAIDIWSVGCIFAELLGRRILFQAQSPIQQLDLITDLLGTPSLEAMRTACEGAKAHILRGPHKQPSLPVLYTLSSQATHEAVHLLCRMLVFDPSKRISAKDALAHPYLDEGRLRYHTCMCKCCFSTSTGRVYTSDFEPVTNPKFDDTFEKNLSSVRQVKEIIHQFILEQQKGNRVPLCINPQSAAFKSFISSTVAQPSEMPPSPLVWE
Assay [39] addresses Serine/threonine-protein kinase PAK 4 (Homo sapiens) (UniProt O96013). Nature of the assay: PAK4 (h) Millipore kinase activity assay. As to conditions: Compound concentration 1.0 uM.
Assay [40] addresses Serine/threonine-protein kinase PAK 6 (Homo sapiens) (UniProt Q9NQU5). Nature of the assay: PAK6 (h) Millipore kinase activity assay. The conditions noted are these: Compound concentration 1.0 uM.
The target of assay [41] is Protein kinase C beta type (Homo sapiens) (UniProt P05771). Nature of the assay: PKCbetaII (h) Millipore kinase activity assay. As to conditions: Compound concentration 1.0 uM.
Sequence of Protein kinase C beta type (Homo sapiens) (P05771 2-671 limits assumed): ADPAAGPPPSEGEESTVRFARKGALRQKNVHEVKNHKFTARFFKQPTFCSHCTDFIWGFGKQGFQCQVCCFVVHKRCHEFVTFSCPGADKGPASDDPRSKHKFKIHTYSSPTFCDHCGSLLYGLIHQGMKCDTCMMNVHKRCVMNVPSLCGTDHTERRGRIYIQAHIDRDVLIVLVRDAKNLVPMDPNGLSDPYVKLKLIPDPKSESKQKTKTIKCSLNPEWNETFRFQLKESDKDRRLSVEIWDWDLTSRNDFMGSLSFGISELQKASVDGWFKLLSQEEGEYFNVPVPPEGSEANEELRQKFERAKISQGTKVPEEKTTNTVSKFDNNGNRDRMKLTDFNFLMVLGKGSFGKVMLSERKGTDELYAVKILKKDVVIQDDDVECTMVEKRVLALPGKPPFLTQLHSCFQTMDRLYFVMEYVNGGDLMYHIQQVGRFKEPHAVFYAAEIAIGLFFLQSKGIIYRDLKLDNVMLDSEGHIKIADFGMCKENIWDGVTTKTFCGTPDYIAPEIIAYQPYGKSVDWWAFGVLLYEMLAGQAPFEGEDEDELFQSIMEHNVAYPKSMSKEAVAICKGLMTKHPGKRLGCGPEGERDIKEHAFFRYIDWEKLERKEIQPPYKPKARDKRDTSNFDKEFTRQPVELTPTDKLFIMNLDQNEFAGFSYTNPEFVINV
Assay [42] deals with Mitogen-activated protein kinase 14 (Homo sapiens) (UniProt Q16539). Nature of the assay: SAPK2a (h) Millipore kinase activity assay. As to conditions: Compound concentration 1.0 uM.
The target in assay [43] is Serine/threonine-protein kinase Sgk1 (Homo sapiens) (UniProt O00141). Nature of the assay: SGK (h) Millipore kinase activity assay. The conditions noted are these: Compound concentration 1.0 uM.
Assay [44] has as its target ATP-sensitive inward rectifier potassium channel 11 (Cricetulus griseus) (UniProt A0A3L7HHE1). Nature of the assay: Inhibition of Potassium Channel [KATP] at 10 µM in the Eurofins-Panlabs radioligand binding assay (Eurofins_assay_265600). As to conditions: Cricetinae; Compound concentration 10.0 uM.
The target of assay [45] is Alpha-1A adrenergic receptor (Homo sapiens) (UniProt P35348). The conditions noted are these: Rattus norvegicus; Compound concentration 10.0 uM.

Structures are written as SMILES.

Sequence of Receptor tyrosine-protein kinase erbB-2 (Homo sapiens) (P04626 whole entry): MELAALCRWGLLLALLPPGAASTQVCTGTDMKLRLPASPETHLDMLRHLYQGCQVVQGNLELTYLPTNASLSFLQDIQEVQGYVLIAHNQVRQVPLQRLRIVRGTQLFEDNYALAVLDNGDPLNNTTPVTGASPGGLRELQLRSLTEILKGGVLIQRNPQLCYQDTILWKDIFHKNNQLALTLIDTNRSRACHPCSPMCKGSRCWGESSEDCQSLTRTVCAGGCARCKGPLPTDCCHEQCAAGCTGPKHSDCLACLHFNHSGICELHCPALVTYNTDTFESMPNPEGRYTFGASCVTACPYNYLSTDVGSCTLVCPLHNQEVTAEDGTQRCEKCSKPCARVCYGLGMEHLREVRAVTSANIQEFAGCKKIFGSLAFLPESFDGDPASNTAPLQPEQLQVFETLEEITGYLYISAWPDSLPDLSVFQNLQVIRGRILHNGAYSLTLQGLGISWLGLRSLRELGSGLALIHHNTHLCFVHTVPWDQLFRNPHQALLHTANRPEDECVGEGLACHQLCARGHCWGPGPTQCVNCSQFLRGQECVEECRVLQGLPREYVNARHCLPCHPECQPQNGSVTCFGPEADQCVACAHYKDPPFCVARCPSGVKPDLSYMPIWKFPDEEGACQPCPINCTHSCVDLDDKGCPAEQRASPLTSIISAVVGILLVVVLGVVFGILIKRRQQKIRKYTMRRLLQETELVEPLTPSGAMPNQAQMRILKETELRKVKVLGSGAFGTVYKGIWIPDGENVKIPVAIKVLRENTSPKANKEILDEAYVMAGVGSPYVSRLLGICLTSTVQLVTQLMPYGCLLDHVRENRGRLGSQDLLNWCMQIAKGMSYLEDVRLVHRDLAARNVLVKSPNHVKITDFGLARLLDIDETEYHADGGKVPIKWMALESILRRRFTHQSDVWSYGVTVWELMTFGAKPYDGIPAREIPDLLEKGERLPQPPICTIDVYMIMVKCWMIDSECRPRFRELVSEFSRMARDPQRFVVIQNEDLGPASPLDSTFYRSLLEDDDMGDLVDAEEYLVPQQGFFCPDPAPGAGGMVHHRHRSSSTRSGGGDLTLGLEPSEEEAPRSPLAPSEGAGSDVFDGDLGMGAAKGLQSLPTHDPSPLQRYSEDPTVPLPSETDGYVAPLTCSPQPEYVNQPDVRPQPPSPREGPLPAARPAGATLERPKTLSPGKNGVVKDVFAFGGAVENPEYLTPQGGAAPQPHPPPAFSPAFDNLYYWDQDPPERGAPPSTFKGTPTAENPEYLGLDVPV
Sequence of Casein kinase I isoform alpha-like (Homo sapiens) (Q8N752 whole entry, canonical isoform): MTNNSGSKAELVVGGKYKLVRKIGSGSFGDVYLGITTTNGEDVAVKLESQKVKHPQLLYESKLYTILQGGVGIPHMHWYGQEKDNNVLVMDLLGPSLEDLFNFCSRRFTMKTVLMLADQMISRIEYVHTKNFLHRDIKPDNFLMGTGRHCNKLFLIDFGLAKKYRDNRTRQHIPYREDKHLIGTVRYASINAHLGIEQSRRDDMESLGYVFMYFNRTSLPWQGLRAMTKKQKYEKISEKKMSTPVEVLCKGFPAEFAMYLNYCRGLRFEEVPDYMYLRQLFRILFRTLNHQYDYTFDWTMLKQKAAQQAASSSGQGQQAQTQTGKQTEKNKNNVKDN

The inhibition is the drop in the measured response relative to a control, in per cent. For the molecule `CC1=C(C#N)[C@@H](c2ccc3[nH]nc(C)c3c2)C(C#N)=C(c2ccc(Cl)cc2)N1` [BAY-827], the residual activity in assay [1] is 100%; in assay [2], 100%; in assay [3], 66.2%; in assay [4], 91.6%; in assay [5], 100%; in assay [6] it was 100%. Moreover, the residual activity in assay [7] is 72.2%; in [8], 50.1%; in [9], 100%; in assay [10] it was 100%; in assay [11], 74.3%; in [12], 100%. Further, the residual activity is 100% in [13]; 100% in assay [14]; 96.4% in [15]; 38.2% in assay [16]; 54% in assay [17]; 100% in [18]. In addition, the residual activity was 71.5% in assay [19]; 100% in assay [20]; 100% in assay [21]; 100% in [22]; 100% in assay [23]; 100% in assay [24]. Moreover, the residual activity in assay [25] was 100%; in assay [26] it was 100%; in assay [27], 100%; in [28], 74.5%; in [29], 100%; in assay [30], 96.3%. Further, in [31], the residual activity is 100%. The inhibition in assay [32] is -7.44%.
In the case of `CC1=C(C#N)C(c2ccc3[nH]nc(C)c3c2)C(C#N)=C(C)N1` [BAY-474], the inhibition in assay [33] was -8%; in assay [34] it was 4%; in [35], 9%; in [36] it was 4%; in [37] it was 2%; in assay [38] it was -4%. For the same molecule, the inhibition in assay [39] was 3%; in assay [40] it was 7%; in assay [41] it was 7%; in assay [42], 3%; in assay [43], -2%; in assay [44] it was 9%. In addition, the inhibition in assay [45] is 1%.
